Publication PMC10500570 (ACS Omega, 2023)

Key:
SH-SY5Y cells = experiment: SRB cytotoxicity assay; format: cell-based; details: Homo sapiens, 48 h, read-out: GI50 ± SD
BChE from equine serum = BChE from equine serum (Equus caballus, UniProt P81908); experiment: BChE inhibition, Ellman assay; format: biochemical
Human recombinant AChE = Human recombinant AChE (Homo sapiens, UniProt P22303); experiment: AChE inhibition, Ellman assay; format: biochemical
Human recombinant AChE, sequence (P22303 32-614): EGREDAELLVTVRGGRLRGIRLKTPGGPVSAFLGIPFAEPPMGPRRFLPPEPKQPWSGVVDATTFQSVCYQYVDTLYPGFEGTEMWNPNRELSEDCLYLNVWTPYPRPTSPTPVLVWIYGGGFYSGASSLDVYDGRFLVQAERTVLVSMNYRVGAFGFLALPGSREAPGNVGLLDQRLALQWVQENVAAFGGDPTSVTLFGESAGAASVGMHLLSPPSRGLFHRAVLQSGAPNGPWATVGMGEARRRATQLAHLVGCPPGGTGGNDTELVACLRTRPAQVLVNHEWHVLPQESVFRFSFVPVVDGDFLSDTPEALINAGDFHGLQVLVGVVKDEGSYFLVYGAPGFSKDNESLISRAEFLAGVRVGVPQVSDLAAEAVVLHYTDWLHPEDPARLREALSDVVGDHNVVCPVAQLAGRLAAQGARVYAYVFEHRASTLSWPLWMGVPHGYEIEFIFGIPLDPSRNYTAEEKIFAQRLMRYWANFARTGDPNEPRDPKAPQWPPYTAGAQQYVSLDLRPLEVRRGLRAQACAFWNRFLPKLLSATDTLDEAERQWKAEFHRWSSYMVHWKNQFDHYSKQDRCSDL

BChE from equine serum, sequence (P81908 whole entry): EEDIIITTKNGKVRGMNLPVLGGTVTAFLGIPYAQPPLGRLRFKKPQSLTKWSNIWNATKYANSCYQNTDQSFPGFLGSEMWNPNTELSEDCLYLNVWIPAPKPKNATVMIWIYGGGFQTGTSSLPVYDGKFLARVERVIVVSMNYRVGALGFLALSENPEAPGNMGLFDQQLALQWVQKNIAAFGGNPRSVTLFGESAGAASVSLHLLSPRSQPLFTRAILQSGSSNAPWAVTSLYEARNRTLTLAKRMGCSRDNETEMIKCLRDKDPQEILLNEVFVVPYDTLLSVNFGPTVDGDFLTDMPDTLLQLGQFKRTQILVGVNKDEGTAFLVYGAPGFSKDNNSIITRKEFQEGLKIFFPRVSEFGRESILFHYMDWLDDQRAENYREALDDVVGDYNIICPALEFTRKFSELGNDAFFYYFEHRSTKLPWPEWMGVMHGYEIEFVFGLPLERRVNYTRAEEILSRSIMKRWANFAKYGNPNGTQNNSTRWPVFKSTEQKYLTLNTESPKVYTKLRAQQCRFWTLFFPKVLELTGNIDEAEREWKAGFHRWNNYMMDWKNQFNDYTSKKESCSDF

SMILES: O=C1C=C(OCCCCCCCCn2cc(CNc3ccc4ncc(-c5ccccc5)nc4c3)nn2)C(=O)c2ccccc21 [Compound 7d]
- GI50 (SH-SY5Y cells): > 100 µM
- IC50 (BChE from equine serum): 4.4 ± 0.4 µM
- IC50 (Human recombinant AChE): > 100 µM
- SI (selectivity index) (Human recombinant AChE; Selectivity index = BChE IC50/AChE IC50): <0.044

SMILES: O=C1C=C(OCCCCCCn2cc(CNc3ccc4ncc(-c5ccccc5)nc4c3)nn2)C(=O)c2ccccc21 [Compound 7c]
- GI50 (SH-SY5Y cells): > 100 µM
- IC50 (BChE from equine serum): > 100 µM
- IC50 (Human recombinant AChE): > 100 µM
